Data reported in patent US20120177701A1, “COMPOSITIONS COMPRISING IMMUNOSTIMULATORY NUCLEIC ACIDS AND RELATED METHODS” (priority 2010, published 2012).

Assays:
[1] = test system: J774 murine macrophages; experiment: TNF-α induction in mouse macrophage cell line J774; format: cell-based
Description: Induction of TNF-α by macrophages is a hallmark of human TLR8 activation (Forsbach et al., 2008, J. Immunol., 180:3729-38; Ghosh et al., 2007, Int. Immunopharmacol., 7:1111-21; Gorden et al., 2005, J. Immunol., 174:1259-68). […] In the following experiment mouse macrophage cell line, J774, has been transfected by test ribonucleotides as described above for HEK-Blue™ hTLR8 cells (with the exception that 2-10×10^4 cells/well were used) and TNF-α was measured in culture supernatants at 16-20 hours after transfection.

[2] = biological target: T1, human TLR3 (Homo sapiens, UniProt O15455); format: cell-based
T1 construct: expressed in transfected cells; host or cells: HEK-Blue hTLR3 (HEK293-derived reporter line)
T1 sequence (O15455 24-904): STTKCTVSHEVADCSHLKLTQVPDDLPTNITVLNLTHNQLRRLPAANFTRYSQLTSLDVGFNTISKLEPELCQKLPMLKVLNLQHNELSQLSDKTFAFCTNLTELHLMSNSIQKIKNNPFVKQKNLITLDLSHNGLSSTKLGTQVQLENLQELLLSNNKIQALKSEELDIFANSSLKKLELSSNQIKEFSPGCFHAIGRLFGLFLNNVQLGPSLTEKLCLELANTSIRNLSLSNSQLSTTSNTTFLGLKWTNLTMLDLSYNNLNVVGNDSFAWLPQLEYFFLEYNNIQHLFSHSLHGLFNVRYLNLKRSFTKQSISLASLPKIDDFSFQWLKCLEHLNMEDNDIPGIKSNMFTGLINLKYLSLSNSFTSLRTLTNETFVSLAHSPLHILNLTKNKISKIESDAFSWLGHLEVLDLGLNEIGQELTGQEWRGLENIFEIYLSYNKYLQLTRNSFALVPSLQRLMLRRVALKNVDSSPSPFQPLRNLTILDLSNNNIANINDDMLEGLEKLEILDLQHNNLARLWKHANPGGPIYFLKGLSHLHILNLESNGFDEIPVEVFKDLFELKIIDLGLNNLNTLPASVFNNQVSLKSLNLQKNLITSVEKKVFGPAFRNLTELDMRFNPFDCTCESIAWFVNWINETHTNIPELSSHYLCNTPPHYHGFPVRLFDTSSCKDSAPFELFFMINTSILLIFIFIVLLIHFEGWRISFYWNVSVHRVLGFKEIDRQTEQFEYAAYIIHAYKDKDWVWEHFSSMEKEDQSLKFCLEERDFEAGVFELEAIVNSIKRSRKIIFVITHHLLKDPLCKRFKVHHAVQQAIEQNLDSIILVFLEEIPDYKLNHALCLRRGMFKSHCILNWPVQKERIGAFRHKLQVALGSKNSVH

[3] = test system: primary human lymphocytes; format: cell-based
[4] = biological target: T2, human TLR8 (Homo sapiens, UniProt Q9NR97); experiment: HEK-Blue hTLR8 NF-kB-inducible SEAP reporter assay (TLR8 activation); format: cell-based
T2 construct: host or cells: HEK293 (HEK-Blue hTLR8) with NF-kB-inducible SEAP reporter
T2 sequence (Q9NR97 27-1041): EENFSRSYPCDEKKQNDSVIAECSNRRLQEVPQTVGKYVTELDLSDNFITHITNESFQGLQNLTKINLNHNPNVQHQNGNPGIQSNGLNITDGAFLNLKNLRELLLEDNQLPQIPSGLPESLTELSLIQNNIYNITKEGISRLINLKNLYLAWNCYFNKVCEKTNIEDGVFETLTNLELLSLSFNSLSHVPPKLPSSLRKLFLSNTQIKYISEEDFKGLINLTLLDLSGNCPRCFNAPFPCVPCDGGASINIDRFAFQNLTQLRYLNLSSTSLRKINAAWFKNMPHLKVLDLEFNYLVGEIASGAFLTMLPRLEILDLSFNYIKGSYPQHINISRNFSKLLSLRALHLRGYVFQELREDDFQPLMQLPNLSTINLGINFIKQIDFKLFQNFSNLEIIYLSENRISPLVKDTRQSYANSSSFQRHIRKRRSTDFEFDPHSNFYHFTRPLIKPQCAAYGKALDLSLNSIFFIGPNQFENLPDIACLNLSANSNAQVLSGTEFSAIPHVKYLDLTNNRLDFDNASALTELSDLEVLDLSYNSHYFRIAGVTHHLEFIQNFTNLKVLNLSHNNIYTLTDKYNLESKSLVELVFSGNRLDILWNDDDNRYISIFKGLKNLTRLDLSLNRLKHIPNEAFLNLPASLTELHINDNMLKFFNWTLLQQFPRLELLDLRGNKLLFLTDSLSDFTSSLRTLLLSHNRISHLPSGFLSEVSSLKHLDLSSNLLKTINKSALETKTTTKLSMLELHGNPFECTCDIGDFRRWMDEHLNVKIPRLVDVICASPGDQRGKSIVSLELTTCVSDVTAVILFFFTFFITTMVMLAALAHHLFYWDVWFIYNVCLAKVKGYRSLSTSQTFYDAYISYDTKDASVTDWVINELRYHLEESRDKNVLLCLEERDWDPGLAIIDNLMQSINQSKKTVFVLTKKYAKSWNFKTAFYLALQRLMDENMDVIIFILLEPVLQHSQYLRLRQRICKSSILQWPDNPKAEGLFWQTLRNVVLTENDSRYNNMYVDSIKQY

[5] = test system: HEK-Blue™ Null; format: cell-based, human
[6] = biological target: T3, human TLR9 (Homo sapiens, UniProt Q9NR96); format: cell-based
T3 construct: expressed in transfected cells; host or cells: HEK-Blue hTLR9 (HEK293-derived reporter line)
T3 sequence (Q9NR96 26-1032): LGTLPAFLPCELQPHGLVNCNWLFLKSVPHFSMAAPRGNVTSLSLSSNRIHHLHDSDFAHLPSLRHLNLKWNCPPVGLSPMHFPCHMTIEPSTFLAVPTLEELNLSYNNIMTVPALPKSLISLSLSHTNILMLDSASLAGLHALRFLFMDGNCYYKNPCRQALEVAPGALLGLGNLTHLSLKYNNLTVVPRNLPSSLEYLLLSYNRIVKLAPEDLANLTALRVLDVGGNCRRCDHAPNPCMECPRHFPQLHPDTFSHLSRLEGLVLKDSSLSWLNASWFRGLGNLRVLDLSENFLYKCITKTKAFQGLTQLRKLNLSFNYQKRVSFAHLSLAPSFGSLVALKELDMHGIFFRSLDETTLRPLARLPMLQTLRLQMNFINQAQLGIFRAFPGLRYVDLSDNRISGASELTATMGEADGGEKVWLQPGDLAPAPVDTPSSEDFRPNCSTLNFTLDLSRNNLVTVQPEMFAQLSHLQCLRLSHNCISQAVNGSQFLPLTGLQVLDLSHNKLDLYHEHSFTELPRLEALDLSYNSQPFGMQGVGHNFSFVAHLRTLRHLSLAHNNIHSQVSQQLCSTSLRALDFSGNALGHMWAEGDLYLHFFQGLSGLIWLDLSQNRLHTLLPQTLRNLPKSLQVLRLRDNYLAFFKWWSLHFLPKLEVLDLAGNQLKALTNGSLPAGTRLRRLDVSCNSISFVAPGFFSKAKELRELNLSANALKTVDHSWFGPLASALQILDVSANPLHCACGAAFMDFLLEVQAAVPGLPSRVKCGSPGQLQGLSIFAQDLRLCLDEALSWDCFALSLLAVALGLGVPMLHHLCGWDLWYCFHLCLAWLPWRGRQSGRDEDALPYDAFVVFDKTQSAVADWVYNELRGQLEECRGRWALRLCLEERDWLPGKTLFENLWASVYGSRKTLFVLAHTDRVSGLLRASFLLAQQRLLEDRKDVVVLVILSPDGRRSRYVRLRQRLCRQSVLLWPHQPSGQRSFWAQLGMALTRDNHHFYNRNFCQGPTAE

5′-AAGAAGAAAUAGAUUUAUUUUUAAAUUUUUGUGU-3′ [SL-0005]
TNF-α induction, described in words [1]: strongly induced TNF-α expression, to the level seen when R-0006 was used | activation of SEAP expression [2]: No activation of SEAP expression | 11-12(p40) induction [3]: significant levels | IFNγ induction [3]: significant levels | IL-4 induction (Th2-type cytokine) [3]: insignificant | IL-5 induction (Th2-type cytokine) [3]: insignificant | IL-6 induction [3]: significant levels | IL-10 induction [3]: significant levels | IL-23 induction [3]: significant levels | TNFα induction [3]: significant levels | TLR8 activation (fold increase of SEAP induction over the background), described in words [4]: stronger levels of TLR8 activation | concentration at which TLR8 activation was detected starting [4]: 40 nM | activation of SEAP expression [5]: No activation of SEAP expression | activation of SEAP expression [6]: No activation of SEAP expression
